Entries after “also recorded” stand apart in the source; their conditions may differ.
Tests used:
[1] = test system: human EZH2 locus; assay: EZH2 locus ChIP analysis with anti-E2F1 antibody in human juvenile islets; assay type: cell-based; conditions: juvenile human islets exposed to PDGF-AA
Procedure: ChIPs were performed using a chromatin immunoprecipitation kit from Millipore. Briefly, freshly isolated mouse pancreatic islets or cultured human islets after the indicated treatments were pooled, and fixed with 2% formaldehyde for cross-linking for 20 min at room temperature (25° C.). After washing, islets were dissolved in SDS lysis buffer containing a proteinase inhibitor cocktail followed by sonication to shear the chromatin. Precleared chromatin from 150 to 300 islets was used for each ChIP sample with incubation of 1 to 5 μg of the appropriate antibodies at 4° C. overnight. The antibodies used in the ChIP assays included mouse anti-E2F1 (Millipore), rabbit anti-E2F4 (Santa Cruz Biotechnologies), rabbit or mouse polyclonal IgG (Millipore). […] After measurement of DNA concentration by PicoGreen DNA assay (Invitrogen), equivalent amounts of chromatin DNA from every sample was quantified by real-time qPCR in ABI Prism 7300 detection system (Applied Biosystems). […] Afterwards, human islets were processed in a similar way as in mouse islet studies for immunostaining of insulin, glucagon, PDX1 and BrdU. β-Cell proliferation rate was determined by quantifying percentage of insulin+ cells with BrdU+. More than 50 islets per group were counted for determining cultured human islet β-cell proliferation rate.

[2] = Serum PDGF-AA by ELISA in NOD-scid mice with osmotic pump; assay type: in vivo, mouse; conditions: control NOD-scid mice, subcutaneous osmotic pump primed with 4 μg PDGF-AA
Text: Exposure of islets from young human donors to purified PDGF-AA stimulates ERK-dependent signaling pathways culminating in enhanced β-cell proliferation. However, these studies have not yet shown if PDGF-AA activation is sufficient to drive regeneration of functional β-cell mass in vivo. To assess this question, equivalent numbers of size-matched islets from young (ages 1-10 years) and control adult donors (age >20 years) were transplanted into NOD-scid mice.

[3] = test system: mouse islet β-cells; assay: In vitro mouse islet β-cell proliferation (BrdU incorporation); assay type: cell-based; conditions: juvenile (3 week-old) mouse islets, PDGF-AA 50 ng/ml, 2 days
Procedure: Mouse pancreatic islets were purified as described in Chen et al. (2009) Genes Dev. 23, 975-985 and used immediately for assays described in the text. To study Ezh2 induction in cultured islets exposed to mitogens, freshly isolated islets from 2-3-week old, and 7-12-month old C57BL/6 mice were recovered and equilibrated overnight at 37° C., 5% CO2 in RPMI-1640 medium supplemented with 0.5% fetal bovine serum (FBS), 0.2% bovine albumin (BSA) and 2% penicillin/streptomycin. Afterwards, islets were distributed into microplates or dishes, and treated with recombinant human PDGF-AA, prolactin or insulin (Sigma), with or without addition of pharmacological inhibitors, including Sunitinib (Selleck), […]0126 (Sigma), LY294002 (Sigma) or U-73122 (Sigma) at the indicated concentrations. Two days later, islets were harvested for RNA or protein extraction for real-time RTPCR or western blot analyses. To detect phosphorylation of Pdgfr-α by western blot, islets were exposed to PDGF-AA (with or without indicated pharmacological inhibitors) for 90 min before islet harvesting and protein extraction. To detect in vitro islet β-cell proliferation stimulated by PDGF-AA, a final concentration of 50 μM BrdU was introduced into each culture dish 24 h before harvest, followed by standard histological processing. Immunostaining of BrdU and insulin was performed on processed islets, and β-cell proliferation rate was determined by quantifying percentage of insulin+ cells with BrdU+. […] For measuring pancreatic β-cell mass or BrdU by morphometry, three to six mice for each group were analysed. At least five sections separated by more than 300 μm (pancreases) or 50 μm (cultured islets) were immunostained and assessed for each sample. Images were analysed with an ImagePro program by observers blinded to genotype, and pancreatic β-cell mass and percentage of BrdU+β-cells were calculated as described in Chen et al. Polycomb protein Ezh2 regulates pancreatic 6-cell Ink4a/Arf expression and regeneration in diabetes mellitus. […]

[4] = test system: human islet β-cells; assay: In vitro human islet β-cell proliferation (BrdU incorporation); assay type: cell-based; conditions: PDGF-AA 50 ng/ml, 2 days
Text: For islet studies, human islets were isolated either at Pittsburgh University Medical Center or the University of Alabama, Birmingham. Eight independent human islet preparations from juvenile donors at the age of 8 months, 1.0, 1.5, 2, 3, 4, 5 and 6 years, and three adult islet preparations from donors at the age of 39, 48 and 56 years were used in this study. After isolation, fresh islets were hand-picked and transferred to RPMI-1640 medium supplemented with 0.5% FBS, 0.2% BSA and 2% penicillin/streptomycin for an overnight recovery before experiments. […] To detect in vitro human islet β-cell proliferation stimulated by PDGF-AA, human islets were exposed to 50 μM BrdU for 24 h. Afterwards, human islets were processed in a similar way as in mouse islet studies for immunostaining of insulin, glucagon, PDX1 and BrdU. β-Cell proliferation rate was determined by quantifying percentage of insulin+ cells with BrdU+. More than 50 islets per group were counted for determining cultured human islet β-cell proliferation rate.

Substance: PDGF-AA: recombinant human PDGF-AA, a homodimer of PDGF alpha polypeptides
- association of E2F1 with the human EZH2 locus (ChIP) [1]: stimulated association of E2F1
- serum PDGF-AA levels [2]: Increased
- β-cell proliferation assessed by BrdU incorporation [3]: increased β-cell proliferation in juvenile islets; also recorded: induces
- β-cell proliferation ([4]; adult human islets): did not alter
- β-cell BrdU incorporation compared to vehicle-exposed controls ([4]; juvenile human islets): sixfold increase
- identity of proliferating BrdU+ cells stimulated by PDGF-AA ([4]; juvenile human islets, confocal microscopy): predominantly β-cells; also recorded: majority of PDGF-AA stimulated proliferating islet cells were PDX1+cells

From patent US20150174202A1, “Methods and Compositions for Modulating Beta Cell Proliferation” (The Board of Trustees of the Leland Stanford Junior …, priority 2011, published 2015)
